Here are results for 34 compounds from US20150191469A1, “COMPOUNDS AND METHODS FOR TREATING HIV” (priority 2012, published 2015).

What is called IC50 is the concentration needed to halve the response being measured.

This assay concerns HIV. Description: MT4 assay: antiviral HIV activity (cell protection, cell titer glo readout at 96 hours). In kind it is cell-based. Conditions: Human immunodeficiency virus 1, MT4, 96 h, MT4 cells, cell titer glo readout at 96 hours, 10 point dose response; read-out: HIV MT4 Assay IC50. In outline: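 MT-4 cells infected with HIV, with inhibition readout by CellTiter-Glo luminescence at 96 h relative to no-compound control. Cytotoxicity measured in parallel under the same conditions. IC50 from a 10-point, 3-4-fold dilution series spanning >1000-fold, fitted with a four-parameter logistic equation.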
(In general: Cellular ATP, detected with luciferase, serves as a proxy for viable cell number.)

Regarding `Cc1nc2c(cc(-c3ccnc(N4CCn5c(C)nnc5C4)c3)n2C)c(-c2cc(F)c3c(c2C)CCCO3)c1[C@H](OC(C)(C)C)C(=O)O` (atropisomer, axis not shown) [Example 79], the IC50 was 645 nM.

Consider `Cc1nc2c(cc(-c3cncc(N4CCN(C5CCOCC5)CC4)n3)n2C)c(-c2cc(F)c3c(c2C)CCCO3)c1[C@H](OC(C)(C)C)C(=O)O` [Example 360], for which the IC50 came out at 30.8 nM. With `CCN(CC)C(=O)C1CCCN(C(=O)c2cc3c(-c4cc(F)c5c(c4C)CCCO5)c([C@H](OC(C)(C)C)C(=O)O)c(C)nc3n2C)C1` (stereo partly shown) [Example 207], the IC50 amounted to 311 nM. Take `Cc1nc2c(cc(-c3ccc(F)cc3)n2C)c(-c2cc(F)c3c(c2C)CCCO3)c1[C@H](OC(C)(C)C)C(=O)O` (atropisomer, axis not shown) [Example 131]: the IC50 turned out to be 89.5 nM. The result for `Cc1nc2c(cc(-c3cc(NCCC(C)(C)C)ncn3)n2C)c(-c2cc(F)c3c(c2C)CCCO3)c1[C@H](OC(C)(C)C)C(=O)O` [Example 366] reads 15.2 nM.

Consider `Cc1nc2c(cc(-c3ccnc(N4CCCN(C(C)C)CC4)c3)n2C)c(-c2cc(F)c3c(c2C)CCCO3)c1[C@H](OC(C)(C)C)C(=O)O` (atropisomer, axis not shown) [Example 98], for which the IC50 is 16.2 nM. Regarding `COC1CCN(c2nsc(-c3cc4c(-c5cc(F)c6c(c5C)CCCO6)c([C@H](OC(C)(C)C)C(=O)O)c(C)nc4n3C)n2)CC1` [Example 395], the IC50 was 13.1 nM.

Regarding `Cc1nc2c(cc(-c3ccnc(-c4ccc5c(c4)CCN(C4COC4)C5)c3)n2C)c(-c2cc(F)c3c(c2C)CCCO3)c1[C@H](OC(C)(C)C)C(=O)O` (atropisomer, axis not shown) [Example 47], the IC50 came out at 5.6 nM. The result for `Cc1nc2c(cc(C(=O)N3CCN(C4CCOCC4)CC3)n2C)c(-c2cc(F)c3c(c2C)CCCO3)c1[C@H](OC(C)(C)C)C(=O)O` [Example 225] reads 436 nM; that for `Cc1nc2c(cc(-c3ccnc(N4CCCN(C5COC5)CC4)c3)n2C)c(-c2ccc3c(c2C)CCCO3)c1[C@H](OC(C)(C)C)C(=O)O` [Example 430], 16.3 nM. The result for `Cc1nc2c(cc(C(=O)N3CCN(C(C)C)CC3)n2C)c(-c2cc(F)c3c(c2C)CCCO3)c1[C@H](OC(C)(C)C)C(=O)O` [Example 277] reads 100 nM. Next, `Cc1nc2c(cc(-c3ccnc(-c4ccc5ncccc5c4)c3)n2C)c(-c2cc(F)c3c(c2C)CCCO3)c1[C@H](OC(C)(C)C)C(=O)O` (atropisomer, axis not shown) [Example 40]: 2.2 nM.

On to `Cc1nc2c(cc(-c3ccnc(-c4ccc5c(cnn5C)c4)c3)n2C)c(C2=CCCCC2)c1[C@H](OC(C)(C)C)C(=O)O` [Example 425], for which the IC50 was 34.5 nM. Next, `CC1=NC2(CCN(C(=O)c3cc4c(-c5cc(F)c6c(c5C)CCCO6)c([C@H](OC(C)(C)C)C(=O)O)c(C)nc4n3C)CC2)N=C1c1ccccc1` [Example 218]: 47.3 nM; `Cc1nc2c(cc(CN(C)C(=O)c3ccc4c(cnn4C)c3)n2C)c(-c2cc(F)c3c(c2C)CCCO3)c1[C@H](OC(C)(C)C)C(=O)O` [Example 296]: 28.5 nM; `Cc1nc2c(cc(-c3nc(N4CCC(N5CCOCC5)CC4)ns3)n2C)c(-c2cc(F)c3c(c2C)CCCO3)c1[C@H](OC(C)(C)C)C(=O)O` [Example 380]: 1.6 nM. Next, `Cc1nc2c(cc(C(=O)N3CCC(c4cccc(C#N)c4)CC3)n2C)c(-c2cc(F)c3c(c2C)CCCO3)c1[C@H](OC(C)(C)C)C(=O)O` [Example 177]: 4.7 nM; `CCN(CC)C1C[C@H]2CC[C@@H](C1)N2c1cc(-c2cc3c(-c4cc(F)c5c(c4C)CCCO5)c([C@H](OC(C)(C)C)C(=O)O)c(C)nc3n2C)ccn1` (stereo partly shown) [Example 110]: 45 nM; `Cc1nc2c(cc(-c3nnc(N4CCN(C5CCOCC5)[C@H](C)C4)o3)n2C)c(-c2cc(F)c3c(c2C)CCCO3)c1[C@H](OC(C)(C)C)C(=O)O` [Example 347]: 6.3 nM. The result for `Cc1nc2c(cc(C(=O)NC(C)(C)C)n2C)c(-c2cc(F)c3c(c2C)CCCO3)c1[C@H](OC(C)(C)C)C(=O)O` [Example 242] reads 79.3 nM; that for `Cc1nc2c(cc(C(=O)N3CCC(N4CCCCC4)CC3)n2C)c(-c2cc(F)c3c(c2C)CCCO3)c1[C@H](OC(C)(C)C)C(=O)O` [Example 278], 110 nM. In the case of `Cc1nc2c(cc(C(=O)NCC(C)(C)C)n2C)c(-c2cc(F)c3c(c2C)CCCO3)c1[C@H](OC(C)(C)C)C(=O)O` [Example 243], the IC50 came out at 30 nM. Next, `Cc1nc2c(cc(-c3ccnc(-c4ccc5c(cnn5C)c4)c3)n2C)c(-c2ccc(Cl)cc2O)c1[C@H](OC(C)(C)C)C(=O)O` [Example 437]: 38 nM; `Cc1nc2c(cc(-c3ccnc(C(=O)Nc4ccnn4C)c3)n2C)c(-c2cc(F)c3c(c2C)CCCO3)c1[C@H](OC(C)(C)C)C(=O)O` (atropisomer, axis not shown) [Example 148]: 40.1 nM; `Cc1nc2c(cc(-c3cnn(CC4CN(C5CCOCC5)C4)c3)n2C)c(-c2cc(F)c3c(c2C)CCCO3)c1[C@H](OC(C)(C)C)C(=O)O` (atropisomer, axis not shown) [Example 130]: 291 nM. The result for `Cc1nc2c(cc(-c3ccnc(N4CCC(N(C)C)CC4)c3)n2C)c(-c2cc(F)c3c(c2C)CCCO3)c1[C@H](OC(C)(C)C)C(=O)O` (atropisomer, axis not shown) [Example 87] reads 42.8 nM; that for `Cc1nc2c(cc(CN3CCc4ccc(N5CCCCC5)cc4C3)n2C)c(-c2cc(F)c3c(c2C)CCCO3)c1[C@H](OC(C)(C)C)C(=O)O` [Example 291], 44.4 nM; that for `Cc1nc2c(cc(-c3ccnc(-c4ccc(N5CCCC5)nc4)c3)n2C)c(-c2cc(F)c3c(c2C)CCCO3)c1[C@H](OC(C)(C)C)C(=O)O` (atropisomer, axis not shown) [Example 45], 4.8 nM. The result for `Cc1nc2c(cc(-c3ccnc(NC4COC4)c3)n2C)c(-c2cc(F)c3c(c2C)CCCO3)c1[C@H](OC(C)(C)C)C(=O)O` (atropisomer, axis not shown) [Example 81] reads 2280 nM. Consider `Cc1nc2c(cc(C(=O)N3CCC(C)CC3)n2C)c(-c2cc(F)c3c(c2C)CCCO3)c1[C@H](OC(C)(C)C)C(=O)O` [Example 176], for which the half-maximal inhibitory concentration (IC50) was 25.6 nM. Regarding `CCO[C@H](C(=O)O)c1c(C)nc2c(cc(-c3nnc(N4CCN(C5CCOCC5)CC4)o3)n2C)c1-c1cc(F)c2c(c1C)CCCO2` [Example 440], the IC50 came out at 348 nM. In the case of `Cc1nc2c(cc(-c3nnc(N4CC[C@@H](F)C4)o3)n2C)c(-c2cc(F)c3c(c2C)CCCO3)c1[C@H](OC(C)(C)C)C(=O)O` [Example 331], the IC50 turned out to be 4.3 nM.

As to `Cc1nc2c(cc(C(=O)N3CCC(c4c[nH]c5ccccc45)CC3)n2C)c(-c2cc(F)c3c(c2C)CCCO3)c1[C@H](OC(C)(C)C)C(=O)O` [Example 191], the IC50 was found to be 4.9 nM. As for `Cc1nc2c(cc(CCC(=O)NCc3ccc(F)cc3)n2C)c(-c2cc(F)c3c(c2C)CCCO3)c1[C@H](OC(C)(C)C)C(=O)O` (atropisomer, axis not shown; (M)) [Example 297, (2S)(M) 2-(tert-butoxy)-2-((R)-4-(8-fluoro-5-methylchroman-6-yl)-2-(3-((4-fluorobenzyl)amino)-3-oxopropyl)-1,6-dimethyl-1H-pyrrolo[2,3-b]pyridin-5-yl)acetic acid], the IC50 was found to be 130 nM.
